Laboratory results taken from ChEMBL document CHEMBL1201862, “PubChem BioAssay data set” (2004).
Values joined by “and” are separate entries in the source; they are usually repeats but may differ in a detail not shown here. Identical values can stand only once.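 A five-concentration, 48-hour dose response in 96-well plates underlies each endpoint, interpolated linearly between surrounding concentrations. GI50 marks 50% less growth.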 Active and inactive are the calls of the source. Rule as the data show it: active = GI50 up to about 1.1 µM and inactive = higher.

What was measured:
Experiment in all cases: NCI anticancer screen, dose series, 48 h
SN12C = tested on: SN12C
HCT-15 = tested on: HCT-15
SW-620 = tested on: SW-620
U-251 = tested on: U-251
NCI/ADR-RES = tested on: NCI/ADR-RES
OVCAR-4 = tested on: OVCAR-4
RPMI-8226 = tested on: RPMI-8226
M14 = tested on: M14
SNB-75 = tested on: SNB-75
KM12 = tested on: KM12
OVCAR-5 = tested on: OVCAR-5
CCRF-CEM = tested on: CCRF-CEM
TK-10 = tested on: TK-10
UACC-257 = tested on: UACC-257
OVCAR-8 = tested on: OVCAR-8
NCI-H522 = tested on: NCI-H522
SK-MEL-5 = tested on: SK-MEL-5
EKVX = tested on: EKVX
HT-29 = tested on: HT-29
NCI-H23 = tested on: NCI-H23
CAKI-1 = tested on: CAKI-1
SF-539 = tested on: SF-539
SNB-19 = tested on: SNB-19
MDA-MB-231 = tested on: MDA-MB-231
NCI-H460 = tested on: NCI-H460
MDA-N = tested on: MDA-N
UACC-62 = tested on: UACC-62
SK-MEL-28 = tested on: SK-MEL-28
OVCAR-3 = tested on: OVCAR-3
MCF7 = tested on: MCF7
HL-60 = tested on: HL-60
NCI-H226 = tested on: NCI-H226
SK-OV-3 = tested on: SK-OV-3
SK-MEL-2 = tested on: SK-MEL-2
HCT-116 = tested on: HCT-116
ACHN = tested on: ACHN
SR = tested on: SR
IGROV-1 = tested on: IGROV-1
786-0 = tested on: 786-0
MOLT-4 = tested on: MOLT-4
PC-3 = tested on: PC-3
UO-31 = tested on: UO-31
T47D = tested on: T47D
MDA-MB-435 = tested on: MDA-MB-435
DU-145 = tested on: DU-145
LOX IMVI = tested on: LOX IMVI
HCC 2998 = tested on: HCC 2998
HOP-62 = tested on: HOP-62
SF-268 = tested on: SF-268
K562 = tested on: K562
Malme-3M = tested on: Malme-3M
SF-295 = tested on: SF-295
HOP-92 = tested on: HOP-92
A549 = tested on: A549
A498 = tested on: A498
RXF 393 = tested on: RXF 393
COLO 205 = tested on: COLO 205
Hs-578T = tested on: Hs-578T

SMILES: N#CCCC1(CCC#N)CCc2ccccc2C1=O
- GI50 (SN12C): > 100 µM (inactive)
- GI50 (HCT-15): > 100 µM
- GI50 (SW-620): > 100 µM (inactive)
- GI50 (U-251): > 100 µM (inactive)
- GI50 (NCI/ADR-RES): > 100 µM (inactive)
- GI50 (OVCAR-4): > 100 µM (inactive)
- GI50 (RPMI-8226): > 100 µM (inactive)
- GI50 (M14): > 100 µM (inactive)
- GI50 (SNB-75): > 100 µM (inactive)
- GI50 (KM12): > 100 µM (inactive)
- GI50 (OVCAR-5): > 100 µM (inactive)
- GI50 (CCRF-CEM): > 100 µM (inactive)
- GI50 (TK-10): > 100 µM (inactive)
- GI50 (UACC-257): > 100 µM (inactive)
- GI50 (OVCAR-8): > 100 µM (inactive)
- GI50 (NCI-H522): > 100 µM (inactive)
- GI50 (SK-MEL-5): > 100 µM (inactive)
- GI50 (EKVX): > 100 µM (inactive)
- GI50 (HT-29): > 100 µM (inactive)
- GI50 (NCI-H23): > 100 µM (inactive)
- GI50 (CAKI-1): > 100 µM (inactive)
- GI50 (SF-539): > 100 µM (inactive)
- GI50 (SNB-19): > 100 µM (inactive)
- GI50 (MDA-MB-231): > 100 µM (inactive)
- GI50 (NCI-H460): > 100 µM (inactive)
- GI50 (MDA-N): > 100 µM (inactive)
- GI50 (UACC-62): > 100 µM (inactive)
- GI50 (SK-MEL-28): > 100 µM (inactive)
- GI50 (OVCAR-3): > 100 µM (inactive)
- GI50 (MCF7): > 100 µM (inactive)
- GI50 (HL-60): > 100 µM (inactive)
- GI50 (NCI-H226): > 100 µM (inactive)
- GI50 (SK-OV-3): > 100 µM (inactive)
- GI50 (SK-MEL-2): > 100 µM (inactive)
- GI50 (HCT-116): > 100 µM (inactive)
- GI50 (ACHN): > 100 µM (inactive)
- GI50 (SR): > 100 µM (inactive)
- GI50 (IGROV-1): > 100 µM (inactive)
- GI50 (786-0): > 100 µM (inactive)
- GI50 (MOLT-4): > 100 µM (inactive)
- GI50 (PC-3): > 100 µM (inactive)
- GI50 (UO-31): > 100 µM (inactive)
- GI50 (T47D): > 100 µM (inactive)
- GI50 (MDA-MB-435): > 100 µM (inactive)
- GI50 (DU-145): > 100 µM (inactive)
- GI50 (LOX IMVI): > 100 µM (inactive)
- GI50 (HCC 2998): > 100 µM (inactive)
- GI50 (HOP-62): > 100 µM (inactive)
- GI50 (SF-268): > 100 µM (inactive)
- GI50 (K562): > 100 µM (inactive)
- GI50 (Malme-3M): > 100 µM (inactive)

SMILES: O=C1C=C2C=CC3CC2(O1)C1CCCCN31 (stereo unspecified)
- GI50 (SF-295): 23.3 µM (inactive) and 35.3 µM (inactive) and 45.2 µM (inactive)
- GI50 (KM12): 19.2 µM (inactive) and 14.8 µM (inactive) and 12.5 µM (inactive)
- GI50 (HOP-92): 12.7 µM (inactive) and 18.3 µM (inactive) and 22.8 µM (inactive)
- GI50 (OVCAR-8): 17.3 µM (inactive) and 28.3 µM (inactive) and 19.1 µM (inactive)
- GI50 (SNB-19): 28.3 µM (inactive) and 32.4 µM (inactive) and 18.7 µM (inactive)
- GI50 (HL-60): 17.2 µM (inactive)
- GI50 (SK-OV-3): 20.5 µM (inactive) and 33.7 µM (inactive) and 30.6 µM (inactive)
- GI50 (SK-MEL-2): 28.1 µM (inactive) and 16.8 µM (inactive) and 27.9 µM (inactive)
- GI50 (PC-3): 21.5 µM (inactive) and 40.4 µM (inactive) and 25.1 µM (inactive)
- GI50 (HCC 2998): 16.8 µM (inactive) and 20.3 µM (inactive) and 27.3 µM (inactive)
- GI50 (Malme-3M): 14.9 µM (inactive)

SMILES: COc1ccc(N2C(=O)C(=O)N(C)C2=O)c2ccccc12
- GI50 (A549): > 10 µM (inactive)
- GI50 (SN12C): > 10 µM (inactive)
- GI50 (HCT-15): > 10 µM
- GI50 (SW-620): > 10 µM (inactive)
- GI50 (SF-295): > 10 µM (inactive)
- GI50 (U-251): > 10 µM (inactive)
- GI50 (NCI/ADR-RES): > 10 µM (inactive)
- GI50 (OVCAR-4): > 10 µM (inactive)
- GI50 (RPMI-8226): > 10 µM (inactive)
- GI50 (M14): > 10 µM (inactive)
- GI50 (SNB-75): > 10 µM (inactive)
- GI50 (KM12): > 10 µM (inactive)
- GI50 (A498): > 10 µM (inactive)
- GI50 (OVCAR-5): > 10 µM (inactive)
- GI50 (CCRF-CEM): > 10 µM (inactive)
- GI50 (TK-10): > 10 µM (inactive)
- GI50 (OVCAR-8): > 10 µM (inactive)
- GI50 (NCI-H522): > 10 µM (inactive)
- GI50 (SK-MEL-5): > 10 µM (inactive)
- GI50 (RXF 393): > 10 µM (inactive)
- GI50 (EKVX): > 10 µM (inactive)
- GI50 (HT-29): > 10 µM (inactive)
- GI50 (NCI-H23): > 10 µM (inactive)
- GI50 (CAKI-1): > 10 µM (inactive)
- GI50 (SF-539): > 10 µM (inactive)
- GI50 (SNB-19): > 10 µM (inactive)
- GI50 (MDA-MB-231): > 10 µM (inactive)
- GI50 (NCI-H460): > 10 µM (inactive)
- GI50 (UACC-62): > 10 µM (inactive)
- GI50 (SK-MEL-28): > 10 µM (inactive)
- GI50 (OVCAR-3): > 10 µM (inactive)
- GI50 (MCF7): > 10 µM (inactive)
- GI50 (HL-60): > 10 µM (inactive)
- GI50 (NCI-H226): > 10 µM (inactive)
- GI50 (SK-OV-3): > 10 µM (inactive)
- GI50 (SK-MEL-2): > 10 µM (inactive)
- GI50 (HCT-116): > 10 µM (inactive)
- GI50 (COLO 205): > 10 µM (inactive)
- GI50 (ACHN): > 10 µM (inactive)
- GI50 (Hs-578T): > 10 µM (inactive)
- GI50 (SR): > 10 µM (inactive)
- GI50 (IGROV-1): > 10 µM (inactive)
- GI50 (MOLT-4): > 10 µM (inactive)
- GI50 (PC-3): > 10 µM (inactive)
- GI50 (UO-31): > 10 µM (inactive)
- GI50 (T47D): > 10 µM (inactive)
- GI50 (MDA-MB-435): > 10 µM (inactive)
- GI50 (DU-145): > 10 µM (inactive)
- GI50 (LOX IMVI): > 10 µM (inactive)
- GI50 (HCC 2998): > 10 µM (inactive)
- GI50 (HOP-62): > 10 µM (inactive)
- GI50 (SF-268): > 10 µM (inactive)
- GI50 (K562): > 10 µM (inactive)
- GI50 (Malme-3M): > 10 µM (inactive)
